The source made the active and inactive calls. How the calls were made is not given here.
molecular target: Caspase-6 (Homo sapiens) (UniProt P55212); experiment: inhibition of CASP6 peptide cleavage – biochemical, VEID-R110 fluorescence, cherry-pick, dose response (AID 720632); conditions: caspase-6, VEID-R110 fluorogenic substrate; at 23.5 µM (top of the series)
Sequence (P55212 24-179 limits assumed): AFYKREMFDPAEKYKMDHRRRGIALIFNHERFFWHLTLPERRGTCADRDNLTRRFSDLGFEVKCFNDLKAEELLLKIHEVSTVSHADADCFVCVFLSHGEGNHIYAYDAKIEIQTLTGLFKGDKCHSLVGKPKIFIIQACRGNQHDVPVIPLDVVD
Sequence (P55212 194-293 limits assumed): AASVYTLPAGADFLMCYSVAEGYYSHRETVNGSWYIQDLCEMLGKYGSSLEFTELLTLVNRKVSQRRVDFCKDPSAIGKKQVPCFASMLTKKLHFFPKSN

Activity change, negative = inhibition, inactive:
COCC(=O)N1[C@@H]2CN(C(=O)Nc3ccccc3F)c3ccccc3[C@@H]2[C@@H]1CO

same assay, conditions: caspase-6, VEID-R110 fluorogenic substrate; at 26 µM (top of the series)

Activity change, negative = inhibition, inactive:
CO[C@H]1CN(C)C(=O)c2ccc(NC(=O)C3CC3)cc2OC[C@H](C)N(Cc2ccccc2)C[C@H]1C
C#CCOc1ccc(CNC[C@H]2O[C@@H](n3ccc(N)nc3=O)[C@H](O)[C@@H]2O)cc1
CO[C@H]1CN(C)C(=O)c2ccc(NC(C)=O)cc2OC[C@H](C)N(C(=O)CC2CC2)C[C@H]1C
COc1ccc(S(=O)(=O)N2CCOC23CCN(S(=O)(=O)c2ccc(C)cc2)CC3)cc1
COc1cc2ccccc2cc1C(=O)N(CCN(C)C)c1nc2c(F)cc(F)cc2s1
O=[N+]([O-])c1ccc(S(=O)(=O)N2CCC3(CC2)OCCN3S(=O)(=O)c2cccs2)cc1
CCOC(=O)C1=C(COC(=O)c2ccc([N+](=O)[O-])s2)NC(=O)NC1C (centres undefined)
COC(=O)c1ccc(COc2cc([N+](=O)[O-])cc3cccnc23)o1
Cc1nc2ccc(NS(=O)(=O)c3c(F)cc(F)cc3Br)cc2s1
COc1cccc(NS(=O)(=O)c2ccc3c(c2)NC(=O)CC(=O)N3)c1
CCCN1C[C@H](C)[C@H](OC)CN(C)C(=O)c2ccc(NC(=O)CC)cc2OC[C@H]1C
C/C(=N\NC(=O)c1ccccc1O)c1ccc(NC(=O)Cc2ccccc2)cc1
COc1ccc(/C=N/NC(=O)c2ccccc2O)cc1CN1CCOCC1
Cc1nc2ccccc2n1CCOc1ccccc1
COc1ccccc1S(=O)(=O)N[C@@H]1C=C[C@@H](CC(=O)N2CCOCC2)O[C@H]1CO
O=C(COC(=O)Cc1ccc(S(=O)(=O)N2CCOCC2)s1)Nc1ccc(F)cc1F
CCCNC(=O)[C@@H]1[C@@H](CO)[C@@H]2Cn3c(ccc(-c4ccccc4)c3=O)[C@@H]2N1CC1CC1
O=C(CN1C(=O)NC2(CCc3ccccc32)C1=O)Nc1c(Cl)cccc1Cl (centres undefined)
O=C(COC(=O)c1cccc(OC(F)F)c1)Nc1cccc(S(=O)(=O)N2CCCC2)c1
O=C(CCOc1ccccc1)N1CCN(S(=O)(=O)c2ccccc2F)CC1
O=C(N/N=C/c1oc(O)c2ccccc12)c1ccccc1O
CO[C@@H]1CN(C)C(=O)c2ccc(NC(=O)C3CC3)cc2OC[C@@H](C)N(CC2CCOCC2)C[C@@H]1C
CCC(=O)Nc1ccc2c(c1)OC[C@H](C)N(C(=O)C1CC1)C[C@H](C)[C@@H](OC)CN(C)C2=O
CCC(=O)Nc1ccc2c(c1)OC[C@H](C)N(C(=O)C1CC1)C[C@@H](C)[C@@H](OC)CN(C)C2=O
Cc1cc2c(NC(=O)Nc3ccc(F)cc3)cccc2nn1
COc1ccc(CCNC(=O)c2c(C)noc2C)cc1
CC(=O)Nc1ccc(C=NNc2ccc([N+](=O)[O-])cc2S(=O)(=O)Nc2ccccc2C(=O)O)cc1
O=C(NCCCO)c1cc([N+](=O)[O-])cc2c1C=Cc1ccccc1O2

— PubChem BioAssay AID720632 (Broad Institute, 2013)
